Values of other authors as cited in patent publication US5780426A, “Fivemer cyclic peptide inhibitors of diseases involving αv β3” (IXSYS, Incorporated, priority 1995, dated 1998).
Bridge positions count the residues as written; N and C are the ends. Ends that are not written are not given here.

Legend:
αv β3 receptor = conditions: chicken embryo tumor model; Brooks et al., Cell 1994
integrin αv β3 = integrin αv β3 (Homo sapiens, UniProt P05106+P06756); conditions: Koivunen et al. 1995
osteoclasts = conditions: Horton et al. 1991
angiogenesis = conditions: Nicosia and Bonanno 1991

Sequence of integrin αv β3 (P06756 31-889 limits assumed): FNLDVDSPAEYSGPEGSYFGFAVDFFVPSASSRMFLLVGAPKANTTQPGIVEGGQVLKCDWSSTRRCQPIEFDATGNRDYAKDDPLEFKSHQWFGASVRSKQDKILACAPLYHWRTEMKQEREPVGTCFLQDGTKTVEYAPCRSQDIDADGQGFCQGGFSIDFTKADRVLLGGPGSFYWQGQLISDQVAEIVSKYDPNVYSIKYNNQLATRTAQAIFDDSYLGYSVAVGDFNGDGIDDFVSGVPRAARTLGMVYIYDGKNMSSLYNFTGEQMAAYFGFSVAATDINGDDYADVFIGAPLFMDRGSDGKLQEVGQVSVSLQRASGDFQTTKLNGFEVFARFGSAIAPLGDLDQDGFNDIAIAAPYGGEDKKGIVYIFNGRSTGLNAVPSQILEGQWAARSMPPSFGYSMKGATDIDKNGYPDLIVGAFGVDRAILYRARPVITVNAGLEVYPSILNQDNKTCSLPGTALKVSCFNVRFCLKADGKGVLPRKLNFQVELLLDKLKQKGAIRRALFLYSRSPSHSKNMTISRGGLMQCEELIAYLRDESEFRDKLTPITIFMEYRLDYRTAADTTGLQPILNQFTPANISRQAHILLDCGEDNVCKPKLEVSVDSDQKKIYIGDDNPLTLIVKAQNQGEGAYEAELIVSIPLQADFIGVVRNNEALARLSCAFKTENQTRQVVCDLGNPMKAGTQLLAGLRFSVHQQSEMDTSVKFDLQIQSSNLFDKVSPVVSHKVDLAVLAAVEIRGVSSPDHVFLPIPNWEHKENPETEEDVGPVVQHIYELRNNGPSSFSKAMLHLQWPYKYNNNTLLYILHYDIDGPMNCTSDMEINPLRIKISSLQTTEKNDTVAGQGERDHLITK
Sequence of integrin αv β3 (P06756 891-1048 partner limits assumed): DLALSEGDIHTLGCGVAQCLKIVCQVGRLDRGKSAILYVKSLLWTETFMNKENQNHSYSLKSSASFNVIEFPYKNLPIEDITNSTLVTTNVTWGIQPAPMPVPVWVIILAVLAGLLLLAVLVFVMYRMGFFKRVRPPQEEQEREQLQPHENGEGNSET
Sequence of integrin αv β3 (P05106 27-788): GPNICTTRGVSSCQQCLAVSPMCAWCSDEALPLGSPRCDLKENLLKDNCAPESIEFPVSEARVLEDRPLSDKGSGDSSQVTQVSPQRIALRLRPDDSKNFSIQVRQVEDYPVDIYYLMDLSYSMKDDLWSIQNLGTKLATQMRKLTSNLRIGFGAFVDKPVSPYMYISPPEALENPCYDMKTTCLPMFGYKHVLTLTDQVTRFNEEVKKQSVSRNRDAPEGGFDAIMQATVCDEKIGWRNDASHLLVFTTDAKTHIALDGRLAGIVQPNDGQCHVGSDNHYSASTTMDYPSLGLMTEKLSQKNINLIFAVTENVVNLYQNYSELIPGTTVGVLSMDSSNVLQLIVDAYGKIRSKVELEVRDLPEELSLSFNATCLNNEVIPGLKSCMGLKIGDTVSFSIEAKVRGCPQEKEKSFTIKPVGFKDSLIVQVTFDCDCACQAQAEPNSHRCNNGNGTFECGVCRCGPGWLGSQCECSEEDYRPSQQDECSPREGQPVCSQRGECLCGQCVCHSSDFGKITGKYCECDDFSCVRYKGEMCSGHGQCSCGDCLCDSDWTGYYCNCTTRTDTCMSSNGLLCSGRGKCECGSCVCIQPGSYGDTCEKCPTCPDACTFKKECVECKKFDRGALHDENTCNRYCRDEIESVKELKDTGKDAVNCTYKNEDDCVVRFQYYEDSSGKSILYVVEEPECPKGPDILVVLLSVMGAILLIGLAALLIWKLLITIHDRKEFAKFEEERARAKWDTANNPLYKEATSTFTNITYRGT

## CC(C)[C@@H]1NC(=O)[C@@H](Cc2ccccc2)NC(=O)[C@H](CC(=O)O)NC(=O)CNC(=O)[C@H](CCCN=C(N)N)NC1=O [cyclo-RGDfv]
αv β3 receptor
  inhibition of angiogenesis / neovascularization: inhibit the neovascularization process

## ACPSRLDSPCG (disulfide 2-10 (inferred)) [RLD peptide synthesized from a random cyclic phage library (Koivunen et al.)]
Integrin αv β3
  selectivity for the integrin αv β3: only partially selective
Integrin αv β3; binding and cell adhesion assays
  activity relative to an RGD peptide (fold lower): 100-1000 fold

## GRGDSP [Arg-Gly-Asp containing peptide]
osteoclasts
  osteoclast function: disruption of osteoclast function

## Gly-Arg-Gly-Asp-Ser (GRGDS)
angiogenesis
  inhibition of angiogenesis in vitro: inhibits angiogenesis in vitro
